Consider one compound from US10787436B2, “Inhibitors of cyclin-dependent kinase 7 (CDK7)” (Dana-Farber Cancer Institute, Inc., priority 2012, dated 2020).

SMILES strings stand for the structures. Where two headings read alike, the source gives them in different places.

One test deals with CDK5/p25 (Homo sapiens (Human), UniProt Q00535). Nature of the test: Life Technologies Z'-Lyte kinase assay, CDK5/p25. Format: biochemical. The note with it: read-out: Calculated IC50, CDK5/p25.
The target of another test is JNK2 (MAPK9) (Homo sapiens (Human), UniProt P45984). Nature of the test: Life Technologies Z'-Lyte kinase assay, JNK2. Format: biochemical.
Chain of JNK2 (MAPK9) (P45984 whole entry): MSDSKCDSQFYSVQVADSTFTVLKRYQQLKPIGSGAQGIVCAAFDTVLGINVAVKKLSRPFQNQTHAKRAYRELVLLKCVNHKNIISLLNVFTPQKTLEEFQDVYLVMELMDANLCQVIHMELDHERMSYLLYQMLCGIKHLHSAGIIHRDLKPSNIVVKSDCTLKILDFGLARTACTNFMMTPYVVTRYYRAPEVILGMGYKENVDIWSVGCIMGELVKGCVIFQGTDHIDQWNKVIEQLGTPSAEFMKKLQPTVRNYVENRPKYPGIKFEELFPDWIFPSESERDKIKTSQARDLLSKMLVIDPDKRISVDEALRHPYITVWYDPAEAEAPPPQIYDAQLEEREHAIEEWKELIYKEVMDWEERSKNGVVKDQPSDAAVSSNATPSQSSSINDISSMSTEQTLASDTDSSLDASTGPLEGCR
The test system of another test is THP-1. Nature of the test: Proliferation assay, CellTiter-Glo, 72 hour. Format: cell-based. The conditions noted are these: blood cancer cell line, read-out: Inhibition of proliferation, THP-1. On the technique in general: In ATP-based viability assays light output follows the ATP content of the culture.
The next test has as its system T47D. Kind of test: Proliferation assay, CellTiter-Glo, 72 hour. Format: cell-based. The note with it: breast cancer cell line, read-out: Inhibition of proliferation, T47D.
A further test concerns SKBR3. Nature of the test: Proliferation assay, CellTiter-Glo, 72 hour. Format: cell-based. The note with it: breast cancer cell line, read-out: Inhibition of proliferation, SKBR3.
The test system of the next test is SAOS. Kind of test: Proliferation assay, CellTiter-Glo, 72 hour. Format: cell-based. The note with it: osteosarcoma cell line, read-out: Inhibition of proliferation, SAOS.
In another test the test system is MNNG-HOS Cl#5. Kind of test: Proliferation assay, CellTiter-Glo, 72 hour. Format: cell-based. The conditions noted are these: osteosarcoma cell line, read-out: Inhibition of proliferation, MNNG-HOS Cl#5.
The test system of test [1] is RNAP II CTD phosphorylation. Nature of the test: RNAP II CTD phosphorylation immunoblot in Loucy cells (dose response, time course, washout). Format: cell-based. The conditions noted are these: for IC50: 4 hours. The method, then: Following the treatment, the cells were washed 2-fold with PBS. Fresh medium containing no inhibitors were added back to the cells. The cells were lysed at indicated time points, and the lysates were probed for RNAP II CTD phosphorylation.
CDK7 exerts its regulatory control of transcription largely by phosphorylating RNAP II CTD, which promotes active transcription. […] Reduction of Ser-5 phosphorylation was seen only at higher concentrations.
Covalent kinase inhibitors have several characteristics that functionally differentiate themselves from their reversible counterparts. […] Washout of compound I-23R, following a 4-hour administration led to the recovery of RNAP II CTD phosphorylation within 1 hour (FIG. 2C). […] This phenomenon was also visible using in vitro kinase reactions comparing pre-incubation of compound I-23 with compound I-23 introduced concurrently with ATP.
Background: Immunoblotting shows a protein as a band on a membrane.

A further test concerns the target FLAG-CDK7 WT (Homo sapiens (Human), UniProt P50613). Nature of the test: In vitro kinase assay of FLAG-CDK7 immunoprecipitated from treated HCT116 cells. Format: cell-based. The note with it: HCT116 cells treated 4 hours, dose-response. The protocol:
Following the treatment, the cells were washed 2-fold with cold PBS and then lysed in the following lysis buffer: 50 mM TrisHCl pH 8.0, 150 mM NaCl, 1% NP-40, 5 mM EDTA, 1 mM DTT, and protease/phosphatase cocktails. Following clearance, the lysates were treated with compound I-49 for pulldown (or CDK7 antibody for IP) overnight at 4° C. The lysates were then incubated with streptavidin agarose for pulldown (or Protein G Agarose for IP) for an additional 2-3 hours at 4° C. Agarose beads were washed 5 times with a lysis buffer and then boiled in 2X SDS for 10 minutes at 95° C.
In vitro kinase assays with immunoprecipitated proteins (or recombinant CAK complexes) were performed as follows. Kinase reactions were performed in 25 μL of final volume of reaction buffer (50 mM Hepes, pH 7.5, 150 mM NaCl, 10 mM MgCl2, 5% glycerol, 25 μM ATP, and 10 μCi of [γ-32P]ATP). Each reaction contained 1 μg of RNAP II. Incubation was at 30° C. for 30-45 min. Reactions were terminated by addition of 5 μL of 5×SDS-PAGE sample buffer and incubated at 95° C. for 5 min. Reactions were analyzed by SDS-PAGE, and the dried gel was exposed to film or PhosphorImager plate.
HCT116 cells were generated stably expressing FLAG-CDK7 WT and C312S. […] CDK7 was then immunoprecipitated (IP) from each combination treatment using a FLAG antibody, and washed IPs were subjected to in vitro kinase assays (FIG. 4F). […]

The test system of test [2] is Jurkat and Loucy leukemia cell lines. Nature of the test: Anti-proliferative effect, cell titer glo, 72 hours. Format: cell-based. The method, then: Precipitated proteins were washed and probed for CDK7.
(§1) Proliferation assays were conducted over a 48-72 hour time period (as noted). […] Cancer cell line profiling was performed over a 72 time period using Alamar Blue reagent.
The phenylamino-pyrimidine (PAP) core scaffold is a “privileged” ATP-site directed pharmacophore with the most famous example being imatinib, a Bcr-Abl inhibitor approved to treat several cancers including Chronic Myelogenous Leukemia. Numerous PAP derivatives have been reported as potent inhibitors of various CDKs; however, efforts to achieve greater selectivity amongst the CDK family members have been hindered by the high sequence and structural similarity of CDKs. […] In an effort to explore broadly which CDKs might be targetable by a covalent inhibitor, a library of acrylamide-modified PAPs was built, and the library was subject to cell proliferation as well broad kinase selectivity profiling using the Kinativ chemical proteomics approach.

For test [3], the system named is panel of >300 diverse cancer cell lines. Nature of the test: Cancer cell line panel profiling, alamarBlue, 72 hours. Format: cell-based, human. The protocol:
At indicated time points, cellular lysates were harvested at the indicated times points and immunoblotted for the indicated proteins. […] Anti-proliferative effects were determined using cell titer glo analysis. […] Anti-proliferative effects were determined using alamarBlue® analysis. […] Anti-proliferative effects were determined using cell titer glo analysis. […] Dose: i.v. 1 mg/kg and p.o. 10 mg/kg.
as §1
CDK7 inhibitors display strong antiproflierative effects in leukemia and lymphoma cancer cells. However, a better definition of the breadth of their therapeutic potential in other cell types has not been reported. […] The rationale for examining such a large panel of human cancer cell lines is based on the fact that there is substantial genetic heterogeneity among human tumor cells, even with the same histological origins. In general, the data reveal a bimodal distribution with cell lines displaying exquisite sensitivity or apparent complete insensitivity to the compound.

The subject of test [4] is patient-derived chronic lymphocytic leukemia (CLL) isolates. Nature of the test: Cell death of patient-derived CLL isolates, Annexin V staining, 24 hour. Format: cell-based, human. The conditions noted are these: read-out: Pro-death signaling, average EC50 values. The protocol:
Clinical isolates of CLL were cultured with compounds of Formula (I) or flavopiridol and assessed for cell death after a 24 hour time course by Annexin V staining. […] Anti-proliferative effect was measured using cell titer glo analysis.
PBMCs freshly isolated from peripheral blood are seeded in 24 well plates at a volume of 0.5 ml and a concentration of 2×10^6 cells/ml. Compounds and controls are added to respective wells in a total volume of 2.5 μl. Plates are mixed gently and incubated approximately 24 hours at 37° C., 5% CO2. Apoptosis was measured in all cells from each well using the Annexin V: FITC Apoptosis Detection Kit I (BD Biosciences). Normalized % death was calculated as follows: [(% Dead Drug−% Dead DMSO)/(100%−% Dead DMSO)]×100

Chain of FLAG-CDK7 WT (P50613 whole entry): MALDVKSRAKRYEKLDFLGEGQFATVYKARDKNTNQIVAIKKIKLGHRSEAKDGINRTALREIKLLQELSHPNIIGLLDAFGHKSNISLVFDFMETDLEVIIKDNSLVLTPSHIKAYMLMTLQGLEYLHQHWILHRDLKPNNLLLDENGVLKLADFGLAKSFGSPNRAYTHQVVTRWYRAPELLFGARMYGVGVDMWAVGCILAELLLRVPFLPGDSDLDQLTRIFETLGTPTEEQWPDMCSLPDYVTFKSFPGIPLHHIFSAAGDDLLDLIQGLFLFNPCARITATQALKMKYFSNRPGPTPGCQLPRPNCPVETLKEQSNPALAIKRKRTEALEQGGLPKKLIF
Chain of FLAG-CDK7 WT (P51946 whole entry partner): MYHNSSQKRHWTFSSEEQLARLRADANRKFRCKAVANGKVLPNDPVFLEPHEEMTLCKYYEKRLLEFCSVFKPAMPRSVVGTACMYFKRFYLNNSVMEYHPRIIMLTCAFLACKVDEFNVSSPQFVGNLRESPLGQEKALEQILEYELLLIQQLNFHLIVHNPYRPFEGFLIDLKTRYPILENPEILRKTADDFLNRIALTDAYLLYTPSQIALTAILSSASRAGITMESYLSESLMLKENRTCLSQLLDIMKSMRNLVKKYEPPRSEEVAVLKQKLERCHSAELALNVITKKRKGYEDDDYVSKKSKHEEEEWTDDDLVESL
Chain of FLAG-CDK7 WT (P51948 whole entry partner): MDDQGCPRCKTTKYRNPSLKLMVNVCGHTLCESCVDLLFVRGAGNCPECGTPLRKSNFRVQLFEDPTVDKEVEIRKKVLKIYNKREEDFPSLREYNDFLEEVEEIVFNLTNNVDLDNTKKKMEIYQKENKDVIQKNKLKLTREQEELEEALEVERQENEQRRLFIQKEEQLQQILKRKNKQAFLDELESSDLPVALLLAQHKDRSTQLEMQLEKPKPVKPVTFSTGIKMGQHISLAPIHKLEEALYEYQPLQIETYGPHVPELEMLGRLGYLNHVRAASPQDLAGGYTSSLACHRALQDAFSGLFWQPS
Chain of CDK5/p25 (Q00535 whole entry): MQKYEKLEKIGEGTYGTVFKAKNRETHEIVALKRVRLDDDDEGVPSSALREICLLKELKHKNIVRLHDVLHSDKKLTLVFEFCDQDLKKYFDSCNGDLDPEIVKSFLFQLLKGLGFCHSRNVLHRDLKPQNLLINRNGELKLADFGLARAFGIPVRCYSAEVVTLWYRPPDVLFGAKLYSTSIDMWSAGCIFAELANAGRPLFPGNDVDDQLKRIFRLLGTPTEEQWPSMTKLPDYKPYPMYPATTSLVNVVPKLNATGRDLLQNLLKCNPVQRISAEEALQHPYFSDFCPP
Chain of CDK5/p25 (Q15078 99-307 partner): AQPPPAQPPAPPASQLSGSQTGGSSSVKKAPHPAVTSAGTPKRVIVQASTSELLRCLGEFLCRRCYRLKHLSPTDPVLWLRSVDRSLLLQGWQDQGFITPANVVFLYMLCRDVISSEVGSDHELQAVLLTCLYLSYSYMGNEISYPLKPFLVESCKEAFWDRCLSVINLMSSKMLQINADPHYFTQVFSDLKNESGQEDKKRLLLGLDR

Broadly, the EC50 is the midpoint of the concentration-response curve. Turning to `CN(C)C/C=C/C(=O)Nc1ccc(C(=O)Nc2cccc(Nc3ncc(Cl)c(-c4c[nH]c5ccccc45)n3)c2)cc1` [Formula I-23], the IC50 was 100 to 1000 nM on CDK5/p25; 100 to 1000 nM at JNK2 (MAPK9) (read-out: Calculated IC50, JNK2 (MAPK9)); under 500 nM with THP-1; over 5000 nM with T47D; 500 to 5000 nM in the test on SKBR3; under 500 nM with SAOS. Also, the IC50 was 500 to 5000 nM in the test with MNNG-HOS Cl#5; about 20 nM in test [1] (read-out: Cellular IC50 for RNAP II CTD Ser-2 phosphorylation); about 4 nM in [1] (read-out: Cellular IC50 for RNAP II CTD Ser-7 phosphorylation); over 2500 nM in [3] (panel of >300 cancer cell lines, read-out: IC50 values in 24% of cell lines); under 200 nM in test [3] (read-out: IC50s in 94% (132/140) of leukemia cell lines); under 150 nM in test [3] (read-out: IC50s in all (48/48) lymphoma cell lines). The IC50 in test [3] (read-out: IC50 values in 70% of cell lines, panel of >300 cancer cell lines) is under 200 nM. Besides, the “Percent inhibition, JNK2 ^b” value at JNK2 (MAPK9) (superscript b (footnote not given; tested at 100 nM and 1 μM)) is recorded as “C (less than 50% inhibition)”. In addition, the “Time to complete inhibition of target (inactivation of CDK7, RNAP II CTD phosphorylation)” value in test [1] (treated 0 to 4 hours) fell in the range of 3 to 4 h. In [1] (washout following a 4-hour administration), the “Recovery of RNAP II CTD phosphorylation after inhibitor washout” value is given as “did not restore normal CTD phosphorylation levels”. In addition, the “Inhibition of FLAG-CDK7 WT kinase activity” value at FLAG-CDK7 WT is listed as “inhibited FLAG-CDK7 WT in a dose-dependent fashion”. Moreover, the “Inhibition of proliferation of Jurkat and Loucy leukemia cell lines” value in test [2] is “potently inhibits proliferation”. Further, the EC50 in test [4] is under 200 nM.
